This is an account of results in patent US20090325904A1, “MALEIC ACID MONOSALT OF ANTIVIRAL AGENT AND PHARMACEUTICAL COMPOSITION CONTAINING THE SAME” (LG Life Sciences Ltd., priority 2007, published 2009).

SMILES strings stand for the structures. ≈ marks a conversion by molar mass, not a printed value. Where two headings read alike, the source gives them in different places. A value given as a limit tells only on which side of the number the result lay.

A short description of data set [1]: Stability under heat and moisture, 40°C/75% RH (residual content by HPLC). In kind it is physicochemical. The protocol:
(§1) Contents of the free base of 3-[({1-[(2-amino-9H-purin-9-yl)methyl]cyclopropyl}oxy)methyl]-8,8-dimethyl-3,7-dioxo-2,4,6-trioxa-3λ5-phosphanon-1-yl-pivalate and salts thereof were measured by high performance liquid chromatography (HPLC). The specific measuring conditions are fisted below:
After 1, 4 and 8 weeks, 5 mg of each sample was taken, dissolved in a solvent mixture of tetrahydrofuran/water (1/1, v/v), and analyzed by HPLC.

A short description of data set [2]: Stability at 60°C (residual content by HPLC). The conditions noted are these: for residual content: 60°C (about 4% RH). The method, then: as §1
After 1 or 2, 4 and 8 weeks, each sample in the glass vial was taken, dissolved in a solvent mixture of tetrahydrofuran/water (1/1, v/v), and analyzed by HPLC.

A short description of data set [3]: Hygroscopicity (no method described). In kind it is physicochemical.
Data set [4] is described as follows: Cytotoxicity determination (MTT). The conditions noted are these: human. The method, then: (§2) The hepatitis B virus-producing cell line, HepG2.2.15 (M. A. Shels, et al., Proc. Natl. Acad. Sci. USA 84, 1005 (1987)), was cultured in DMEM (Dulbecco's Modified Eagle Media; Life Technologies) containing 10% FBS (Fetal Bovine Serum), 1% ABAM (Antibiotic-Antimycotic) and Geneticin whose final concentration was measured as 400 μg/ml. The cells were cultured to confluency, treated with trypsin, and distributed to 96 well microplate in a density of 2×10^4 cells/well. After 24 h, the medium was changed and the compound treatment was carried out in intervals of 2 days by serially diluting the free base of Comparative Example 1 and the maleic acid monosalt of Example by three fold so that the final concentration was 50 μM to 8 nM in 200 μl of medium. Every test samples were duplicated. After 8 days from the first drug treatment, the culture medium was collected, and the cells were lysed by heating the cells to 100° C. for 10 min. In order to minimize the substances that interfere with the DNA amplification reaction, the culture medium was diluted by ten fold using water. The control group, cell culture medium which was not treated with the drug, was treated in the same manner as the above.
(§3) CC50 value of the drug was determined by removing the medium, adding 100 μl of 0.1 mg/ml MTT (Thiazolyl Blue Tetrazolium Bromide: Sigma) to the residue, dyeing the residue for 2 h at 37° C., adding 100 μl of DMSO (Dimethyl Sulfoxide: Sigma), dissolving the resulting mixture by agitating for 2 h at room temperature, and measuring the absorbance at 540 nm.

The subject of the next data set is HepG2.2.15. The experiment in a line: Cytotoxicity determination (MTT). The conditions noted are these: for cytotoxicity: HepG2.2.15. The protocol: as §2, §3
In a further data set the test system is hepatitis B virus. The experiment in a line: In vitro anti-HBV activity, HBV DNA by real-time PCR in HepG2.2.15 culture medium. Type of data set: cell-based. The method, then: as §2
Background: Quantitative PCR measures a nucleic acid by following its amplification.

Data set [5] can be described thus: Solubility test at various pH. Type of data set: physicochemical. Conditions: for solubility at 1.5 h: phosphate buffer / phosphoric acid solution, aqueous buffer, thermodynamic from solid. The method, then: 5˜23 mg each of the maleic acid monosalt of the Example and the free base of Comparative Example 1 was placed into a glass bottle. 500 μl each of the various phosphate buffer solution and phosphoric acid solution having a specific pH value was added thereto. The glass bottle was placed in water to maintain a constant temperature of 25° C., and the mixture was stirred for 1.5 h. After filtration, the content in the filtrate was analyzed by HPLC, and the pH of the solution was measured. The measured pH values and the solubilities of the maleic acid monosalt and the free base are represented in the following Table 3.

As to `CC(C)(C)C(=O)OCOP(=O)(COC1(Cn2cnc3cnc(N)nc32)CC1)OCOC(=O)C(C)(C)C.Cc1ccc(S(=O)(=O)O)cc1` [Comparative Example 3, 3-[({1-[(2-amino-9H-purin-9-yl)methyl]cyclopropyl}oxy)methyl]-8,8-dimethyl-3,7-dioxo-2,4,6-trioxa-3λ5-phosphanon-1-yl-pivalate p-toluenesulfonic acid monosalt], the residual content came to 96.5% in data set [1] (Week 1) and 71.0% in data set [1] (Week 4).

In data set [2] (Week 1), `CC(C)(C)C(=O)OCOP(=O)(COC1(Cn2cnc3cnc(N)nc32)CC1)OCOC(=O)C(C)(C)C.CCS(=O)(=O)O` [Comparative Example 7, 3-[({1-[(2-amino-9H-purin-9-yl)methyl]cyclopropyl}oxy)methyl]-8,8-dimethyl-3,7-dioxo-2,4,6-trioxa-3λ5-phosphanon-1-yl-pivalate ethanesulfonic acid monosalt] showed a residual content of 0.4%.

Turning to `CC(C)(C)C(=O)OCOP(=O)(COC1(Cn2cnc3cnc(N)nc32)CC1)OCOC(=O)C(C)(C)C.Cc1ccc(S(=O)(=O)O)cc1.Cc1ccc(S(=O)(=O)O)cc1` [Comparative Example 4, 3-[({1-[(2-amino-9H-purin-9-yl)methyl]cyclopropyl}oxy)methyl]-8,8-dimethyl-3,7-dioxo-2,4,6-trioxa-3λ5-phosphanon-1-yl-pivalate p-toluenesulfonic acid disalt], the residual content in data set [1] (Week 1), in data set [1] (Week 4) and in data set [1] (Week 8) was 0.0% each time.

The CC50 is the concentration at which the toxic effect on the cells reaches its halfway point. For orientation: solubility means how much of the substance goes into solution per volume. Lower therefore signals little dissolved substance. `CC(C)(C)C(=O)OCOP(=O)(COC1(Cn2cnc3cnc(N)nc32)CC1)OCOC(=O)C(C)(C)C.O=C(O)/C=C\C(=O)O` [Example, 3-[({1-[(2-amino-9H-purin-9-yl)methyl]cyclopropyl}oxy)methyl]-8,8-dimethyl-3,7-dioxo-2,4,6-trioxa-3λ5-phosphanon-1-yl-pivalate maleic acid monosalt]: the residual content in data set [2] (Week 1) came out at 99.4%; in data set [2] (Week 4) it was 99.2%; in data set [2] (Week 8), 98.2%; in data set [1] (Week 1), 99.4%; in data set [1] (Week 4) it was 99.3%; in data set [1] (Week 8), 98.3%. In addition, in data set [2] (60°C, stressed condition), the “thermal stability (decomposition, in words)” value is given as “remained almost intact without decomposition for up to 8 weeks”. Moreover, the hygroscopicity entry in data set [3] is reported as “non-hygroscopic”. The same compound gave a CC50 at 8 days in data set [4] of 6.8 ± 2.4 µM. Moreover, the “cytotoxicity” value with HepG2.2.15 is “about 7 m M”. Besides, the EC50 with hepatitis B virus (Hepatitis B virus, HepG2.2.15, 192 h) is 1.2 ± 0.3 µM; with hepatitis B virus (Hepatitis B virus, HepG2.2.15, read-out: activity (in vitro, summary in text)), approximately 1 µM. In addition, the “solubility relative to the free base” value in data set [5] (pH 6.5) is “three times higher”. Further, the solubility at 1.5 h in data set [5] (25 °C, pH range of 2 to 6.5) was 3 to 7 mg/mL; in data set [5] (solution pH 2.0, 25°C), 5.6 mg/mL; in data set [5] (solution pH 3.2, 25°C) it was 7 mg/mL; in data set [5] (solution pH 4.0, 25°C), 4.2 mg/mL; in data set [5] (solution pH 6.5, 25°C) it was 2.9 mg/mL.

Take `CC(C)(C)C(=O)OCOP(=O)(COC1(Cn2cnc3cnc(N)nc32)CC1)OCOC(=O)C(C)(C)C.CS(=O)(=O)O` [Comparative Example 5, 3-[({1-[(2-amino-9H-purin-9-yl)methyl]cyclopropyl}oxy)methyl]-8,8-dimethyl-3,7-dioxo-2,4,6-trioxa-3λ5-phosphanon-1-yl-pivalate methanesulfonic acid monosalt]: the figures for the residual content in data set [1] (Week 1), in data set [1] (Week 4) and in data set [1] (Week 8) were 50.7%, 0.0% and 0.0%, respectively.

Take `CC(C)(C)C(=O)OCOP(=O)(COC1(Cn2cnc3cnc(N)nc32)CC1)OCOC(=O)C(C)(C)C.O=S(=O)(O)c1ccc2ccccc2c1` [Comparative Example 6, 3-[({1-[(2-amino-9H-purin-9-yl)methyl]cyclopropyl}oxy)methyl]-8,8-dimethyl-3,7-dioxo-2,4,6-trioxa-3λ5-phosphanon-1-yl-pivalate naphthalenesulfonic acid monosalt]: the residual content in data set [2] (Week 2) stood at 74.7%.

For `CC(C)(C)C(=O)OCOP(=O)(COC1(Cn2cnc3cnc(N)nc32)CC1)OCOC(=O)C(C)(C)C` [Comparative Example 1, Free Base of 3-[({1-[(2-amino-9H-purin-9-yl)methyl]cyclopropyl}oxy)methyl]-8,8-dimethyl-3,7-dioxo-2,4,6-trioxa-3λ5-phosphanon-1-yl-pivalate], the residual content in data set [2] (Week 1) is listed as 98.2%; in data set [2] (Week 4), 79.2%; in data set [2] (Week 8) it was 1.2%; in data set [2] (Week 8, listed as free base) it was “about 1%”; in data set [1] (Week 1), 99.0%; in data set [1] (Week 4), 91.3%. This compound also showed a residual content in data set [1] (Week 8) of 8.4%. Also, in the data set on HepG2.2.15, the “cytotoxicity” value is reported as “about 7 m M”. Moreover, half-maximal cytotoxicity in the data set on HepG2.2.15 (HepG2.2.15, MTT) (CC50) was put at 7.9 ± 3 µM. In the data set on hepatitis B virus (HepG2.2.15, 8 days, HBV DNA in culture medium, read-out: EC50), the EC50 was determined as 1.1 ± 0.1 µM. Besides, the solubility in data set [5] (pH 6 or more) was not above 1 mg/mL; in data set [5] (pH of 2 or less) it was not below 36 mg/mL; in data set [5] (solution pH 2.0, 25°C), 36.5 mg/mL (≈ 69.2 mM); in data set [5] (solution pH 3.2, 25°C) it was 8.3 mg/mL (≈ 15.7 mM); in data set [5] (solution pH 4.0, 25°C), 1.7 mg/mL (≈ 3.22 mM); in data set [5] (solution pH 6.5, 25°C), 0.8 mg/mL (≈ 1.52 mM).

As to `CC(C)(C)C(=O)OCOP(=O)(COC1(Cn2cnc3cnc(N)nc32)CC1)OCOC(=O)C(C)(C)C.O=C(O)/C=C\C(=O)O.O=C(O)/C=C\C(=O)O.O=C(O)/C=C\C(=O)O` [Comparative Example 2, 3-[({1-[(2-amino-9H-purin-9-yl)methyl]cyclopropyl}oxy)methyl]-8,8-dimethyl-3,7-dioxo-2,4,6-trioxa-3λ5-phosphanon-1-yl-pivalate maleic acid trisalt], the residual content is listed as 84.4% in data set [1] (Week 1), 0.0% in data set [1] (Week 4) and 0.0% in data set [1] (Week 8).
